Measured values as given in US20020071869A1, “Microparticle composition and method” (priority 2000, published 2002).

Assay: Critical micelle concentration of surfactant
Type: physicochemical
Conditions: at 25° C.

critical micelle concentration: 8.1 mM
Structure (SMILES): CCCCCCCCCCCCOS(=O)(=O)[O-].[Na+] [SDS, sodium dodecyl sulfate]
